# Test results as given in patent US9718821B2, “Pyridopyrimidinone inhibitors of kinases” (AbbVie Inc., priority 2012, dated 2017).
# Target: T1, GST-tagged-Wee1 kinase (Homo sapiens, UniProt P30291)
# T1 construct: purchased Carnabio 05-177
# Test: Wee1 time-resolved fluorescence equilibrium binding assay (displacement of Oregon Green-labeled ATP-competitive kinase probe)
# Details: enzyme binding data; GST-tagged-Wee1 kinase 2 nM, fluorescent probe 300 nM, inhibitor 0.003 to 10 micromolar, 1 hour incubation; read-out: Wee-1 binding (Ki nM)
# Outline: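 Competitive TR-fluorescence equilibrium binding with GST-Wee1; inhibitors displace a rapidly reversible Oregon Green-labelled ATP-competitive probe. Ki values derived from probe displacement.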
# T1 sequence (P30291 whole entry): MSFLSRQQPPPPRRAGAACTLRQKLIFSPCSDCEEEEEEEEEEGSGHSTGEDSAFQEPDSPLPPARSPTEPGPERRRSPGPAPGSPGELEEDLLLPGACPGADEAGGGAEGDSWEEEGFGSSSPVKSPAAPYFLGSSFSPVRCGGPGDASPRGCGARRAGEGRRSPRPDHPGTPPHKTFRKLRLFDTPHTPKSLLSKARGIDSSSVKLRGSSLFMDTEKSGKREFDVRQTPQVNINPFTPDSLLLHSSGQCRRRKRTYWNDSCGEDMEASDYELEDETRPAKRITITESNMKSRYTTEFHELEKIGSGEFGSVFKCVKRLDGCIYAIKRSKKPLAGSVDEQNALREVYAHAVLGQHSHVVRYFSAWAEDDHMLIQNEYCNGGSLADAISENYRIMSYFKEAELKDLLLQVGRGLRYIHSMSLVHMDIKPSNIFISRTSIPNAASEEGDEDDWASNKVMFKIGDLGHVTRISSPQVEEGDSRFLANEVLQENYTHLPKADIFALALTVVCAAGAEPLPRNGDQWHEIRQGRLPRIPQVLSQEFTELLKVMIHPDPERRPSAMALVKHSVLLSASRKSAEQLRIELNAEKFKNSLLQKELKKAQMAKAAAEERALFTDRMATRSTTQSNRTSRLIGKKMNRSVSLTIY
row,Compound,Ki
1,"Cc1cn(-c2c(Cl)cccc2Cl)c(=O)c2cnc(Nc3ccc(OC4CCN(C)CC4)cc3)nc12 [Example 122, 6-(2,6-dichlorophenyl)-8-methyl-2-({4-[(1-methylpiperidin-4-yl)oxy]phenyl}amino)pyrido[4,3-d]pyrimidin-5(6H)-one]",0.4 nM
2,"Cc1n[nH]c(C)c1-n1cc(C)c2nc(Nc3ccc4c(c3)CNCC4)ncc2c1=O [Example 123, 6-(3,5-dimethyl-1H-pyrazol-4-yl)-8-methyl-2-(1,2,3,4-tetrahydroisoquinolin-7-ylamino)pyrido[4,3-d]pyrimidin-5(6H)-one]",1.3 nM
3,"Cc1noc(C)c1-n1cc(C)c2nc(Nc3ccc4c(c3)CNCC4)ncc2c1=O [Example 124, 6-(3,5-dimethyl-1,2-oxazol-4-yl)-8-methyl-2-(1,2,3,4-tetrahydroisoquinolin-7-ylamino)pyrido[4,3-d]pyrimidin-5(6H)-one]",1.6 nM
4,"Cc1cn(-c2c(Cl)cccc2Cl)c(=O)c2cnc(Nc3ccc(NC4CCN(C)C4)cc3)nc12 (centres unmarked) [Example 125, 6-(2,6-dichlorophenyl)-8-methyl-2-({4[(1-methylpyrrolidin-3-yl)amino]phenyl}amino)pyrido[4,3-d]pyrimidin-5(6H)-one]",0.3 nM
5,"Cc1cccc(C)c1-n1cc(C)c2nc(Nc3ccc4c(c3)CNCC4)ncc2c1=O [Example 126, 6-(2,6-dimethylphenyl)-8-methyl-2-(1,2,3,4-tetrahydroisoquinolin-7-ylamino)pyrido[4,3-d]pyrimidin-5(6H)-one]",0.4 nM
6,"Cc1cccc(Cl)c1-n1cc(C)c2nc(Nc3ccc4c(c3)CNCC4)ncc2c1=O [Example 127, 6-(2-chloro-6-methylphenyl)-8-methyl-2-(1,2,3,4-tetrahydroisoquinolin-7-ylamino)pyrido[4,3-d]pyrimidin-5(6H)-one]",0.3 nM
7,"CC(O)c1cn(-c2c(Cl)cccc2Cl)c(=O)c2cnc(Nc3ccc(N4CCN(C)CC4)cc3)nc12 (centres unmarked) [Example 128, 6-(2,6-dichlorophenyl)-8-(1-hydroxyethyl)-2-{[4-(4-methylpiperazin-1-yl)phenyl]amino}pyrido[4,3-d]pyrimidin-5(6H)-one]",2 nM
8,"COC(=O)c1cc(Nc2ncc3c(=O)n(-c4c(Cl)cccc4Cl)cc(C)c3n2)ccc1N1CCN(C)CC1 [Example 129, methyl 5-{[6-(2,6-dichlorophenyl)-8-methyl-5-oxo-5,6-dihydropyrido[4,3-d]pyrimidin-2-yl]amino}-2-(4-methylpiperazin-1-yl)benzoate]",0.2 nM
9,"Cc1cn(-c2c(Cl)cccc2Cl)c(=O)c2cnc(Nc3ccc(NCCN(C)C)cc3)nc12 [Example 130, 6-(2,6-dichlorophenyl)-2-[(4-{[2-(dimethylamino)ethyl]amino}phenyl)amino]-8-methylpyrido[4,3-d]pyrimidin-5(6H)-one]",0.3 nM
10,"Cc1cn(-c2c(Cl)cccc2Cl)c(=O)c2cnc(Nc3ccc(N4CCN(CCCN(C)C)CC4)cc3)nc12 [Example 131, 6-(2,6-dichlorophenyl)-2-[(4-{4-[3-(dimethylamino)propyl]piperazin-1-yl}phenyl)amino]-8-methylpyrido[4,3-d]pyrimidin-5(6H)-one]",0.2 nM
11,"Cc1cn(-c2c(Cl)cccc2Cl)c(=O)c2cnc(Nc3ccc(N[C@H]4CC[C@H](N(C)C)CC4)cc3)nc12 [Example 132, 6-(2,6-dichlorophenyl)-2-[(4-{[trans-4-(dimethylamino)cyclohexyl]amino}phenyl)amino]-8-methylpyrido[4,3-d]pyrimidin-5(6H)-one]",0.4 nM
12,"Cc1cn(-c2c(Cl)cccc2Cl)c(=O)c2cnc(Nc3ccc(N[C@H]4CC[C@@H](N(C)C)CC4)cc3)nc12 [Example 133, 6-(2,6-dichlorophenyl)-2-[(4-{[cis-4-(dimethylamino)cyclohexyl]amino}phenyl)amino]-8-methylpyrido[4,3-d]pyrimidin-5(6H)-one]",0.5 nM
13,"Cc1cn(-c2c(Cl)cccc2Cl)c(=O)c2nnc(Nc3ccc4c(c3)CNCC4)nc12 [Example 134, 7-(2,6-dichlorophenyl)-5-methyl-3-(1,2,3,4-tetrahydroisoquinolin-7-ylamino)pyrido[4,3-e][1,2,4]triazin-8(7H)-one]",6.5 nM
14,"Cc1cn(-c2c(Cl)cccc2Cl)c(=O)c2nnc(Nc3ccc4c(c3)CN(C)CC43CC3)nc12 [Example 135, 7-(2,6-dichlorophenyl)-5-methyl-3-[(2′-methyl-2′,3′-dihydro-1′H-spiro[cyclopropane-1,4′-isoquinolin]-7′-yl)amino]pyrido[4,3-e][1,2,4]triazin-8(7H)-one]",5.7 nM
15,"Cc1cn(-c2c(O)cccc2Cl)c(=O)c2cnc(Nc3ccc4c(c3)CNC4(C)C)nc12 [Example 136, 6-(2-chloro-6-hydroxyphenyl)-2-[(1,1-dimethyl-2,3-dihydro-1H-isoindol-5-yl)amino]-8-methylpyrido[4,3-d]pyrimidin-5(6H)-one]",0.2 nM
16,"Cc1cn(-c2c(Cl)cccc2Cl)c(=O)c2cnc(Nc3ccc4c(c3)CN(C3CCN(C)CC3)C4)nc12 [Example 137, 6-(2,6-dichlorophenyl)-8-methyl-2-{[2-(1-methylpiperidin-4-yl)-2,3-dihydro-1H-isoindol-5-yl]amino}pyrido[4,3-d]pyrimidin-5(6H)-one]",0.4 nM
17,"Cc1cn(-c2c(Cl)cccc2Cl)c(=O)c2cnc(Nc3ccc(N4CCN(CCN(C)C)CC4)cc3)nc12 [Example 138, 6-(2,6-dichlorophenyl)-2-[(4-{4-[2-(dimethylamino)ethyl]piperazin-1-yl}phenyl)amino]-8-methylpyrido[4,3-d]pyrimidin-5(6H)-one]",0.2 nM
18,"Cc1cccc(C)c1-n1cc(C)c2nc(Nc3ccc(N4CCN(CCCN(C)C)CC4)cc3)ncc2c1=O [Example 139, 2-[(4-{4-[3-(dimethylamino)propyl]piperazin-1-yl}phenyl)amino]-6-(2,6-dimethylphenyl)-8-methylpyrido[4,3-d]pyrimidin-5(6H)-one]",2.1 nM
19,"CN(C)CCCN1CCN(c2ccc(Nc3ncc4c(=O)n(-c5c(Cl)cccc5Cl)cc(CF)c4n3)cc2)CC1 [Example 140, 6-(2,6-dichlorophenyl)-2-[(4-{4-[3-(dimethylamino)propyl]piperazin-1-yl}phenyl)amino]-8-(fluoromethyl)pyrido[4,3-d]pyrimidin-5(6H)-one]",0.2 nM
20,"Cc1cn(-c2c(Cl)cccc2Cl)c(=O)c2cnc(Nc3ccc4c(c3)CN(CCN(C)C)C4)nc12 [Example 141, 6-(2,6-dichlorophenyl)-2-({2-[2-(dimethylamino)ethyl]-2,3-dihydro-1H-isoindol-5-yl}amino)-8-methylpyrido[4,3-d]pyrimidin-5(6H)-one]",1 nM
